Legend:
acINV [1] = biological target: acINV (Allium cepa, UniProt O81083); assay: biochemical
acINV [2] = biological target: acINV (Allium cepa, UniProt O81083, W440Y); assay: biochemical

Km (acINV [1]): 5.8 ± 1.9 mM
Km (acINV [2]): 8.8 ± 2.4 mM
SMILES: OC[C@H]1O[C@@](CO)(O[C@H]2O[C@H](CO)[C@@H](O)[C@H](O)[C@H]2O)[C@@H](O)[C@@H]1O [sucrose]

— publication PMC2709226 (Plant Molecular Biology, 2008)
